{"source": "patent US10314917B2", "about": "“Targeted polymeric inflammation-resolving nanoparticles” (The Brigham and Women's Hospital, Inc., priority 2014, dated 2019)", "key": {"[1]": {"system": "atherosclerotic lesion area", "assay": "Atheroprotective effect in plaque-bearing LDLr−/− mice (lesion area, Oil Red O)", "type": "in vivo", "details": "8 mg/kg GW3965 daily i.v. for 14 days", "method": "To explore the atheroprotective effects of these NPs, plaque-bearing LDLr−/− mice were randomly divided into five groups and treated with the following regimens with equivalent doses of 8 mg/kg entrapped GW3965 via daily intravenous administration for 14 consecutive days: i) empty PLGA-b-PEG NP without GW3965 (control); ii) GW3965 in solution form; iii) CNP; iv) TNPLyP-1; and v) TNPCREKA. The aim of this study was to determine whether GW3965-containing NPs would result in inhibition of atherosclerosis development and whether peptide conjugation would improve the delivery efficacy of GW3965."}, "MCP-1 and TNFα": {"system": "MCP-1 and TNFα", "assay": "MCP-1 and TNFα production in LPS-activated peritoneal macrophages (ELISA)", "type": "cell-based, murine", "details": "equivalent dose of GW3965", "method": "Experiments were conducted to assess the in vitro anti-inflammatory effects of GW3965-containing NPs and their ability to regulate LXR target gene expression such as ABCA1 and SREBP-1c. LPS-activated peritoneal macrophages were treated with the indicated NPs containing equivalent doses of GW3965. The supernatant was collected for ELISA analysis of MCP-1 and TNFα. The cells were collected for RT-qPCR analysis of MCP-1 and TNFα mRNA as described below.\nIn the next set of experiments, GW3965-containing NPs were evaluated to see if they are able to exert anti-inflammatory effects on macrophages. Isolated murine peritoneal macrophages were first treated with lipopolysaccharide (LPS) to induce the production of pro-inflammatory factors such as MCP-1 and TNFα. The activated macrophages were then treated with an equivalent dose of GW3965 in either solution or NP form. ELISA assay was performed on the culture supernatant to determine the production of MCP-1 and TNFα."}, "[2]": {"system": "liver macrophage infiltration", "details": "during dietary intervention; P<0.01; cited from earlier work"}, "[3]": {"system": "zymosan-stimulated PMN infiltration", "assay": "In vivo murine zymosan-induced peritonitis", "design": "species or system C57BL/6J mice", "details": "100 ng/mouse i.v.; exudates 4 h post zymosan", "method": "A model of self-limited peritonitis was used to quantitatively assess resolution in vivo to determine whether the developed NPs containing Ac2-26 are anti-inflammatory and/or pro-resolving (Bannenberg 2005; Schwab 2007). Zymosan A was administered to C57BL/6J mice. In parallel, mice were then given vehicle, empty NPs as control, Ac2-26 in NPs, Scrm Ac2-26 in NPs, Ac2-26 native peptides described in detail below. Equal polymer concentration was loaded in both the NPs and Ac2-26 NPs.\n1 ml of zymosan A (100 μg/mouse) in 1 ml of sterile saline was administered to female C57BL/6J mice (6-8 wk old, Charles River Laboratories, Wilmington, Mass., USA) to induce peritonitis (Bannenberg et al. J Immunol 174(7):4345-4355 (2005); Norling, et al. (2011) J Immunol 186(10):5543-5547). […]\nFor baseline PMN number measurements, mice were euthanized at selected time intervals (4, 12, or 24 hours post zymosan stimulation), with an overdose of isofluorane, following which peritoneal exudates were collected by lavaging with Ca^2+/Mg^2+ free phosphate buffered saline (PBS^−/−, 5 ml). Leukocytes were counted with a hemocytometer.\nPeritoneal exudates were harvested 4 h post zymosan initiation, and living cells were quantified using trypan blue exclusion.\nDifferential cell counts were assessed via flow cytometry using an LSRII flow cytometer. […]"}}, "note": "Where no end group is shown, it is not given here."}
{"molecule": "O=C(O)Cc1cccc(OCCCN(Cc2cccc(C(F)(F)F)c2Cl)CC(c2ccccc2)c2ccccc2)c1", "note": "[GW3965, 3-(3-(2-chloro-3-trifluoromethylbenzyl-2,2diphenylethylamino)proproxy), phenylacetic acid]", "values": [{"measurement": "reduction in lesion area compared with controls", "setting": "[1]", "value": "pronounced reduction"}, {"measurement": "production of MCP-1 and TNFα proteins", "setting": "MCP-1 and TNFα", "value": "substantially suppressed"}]}
{"molecule": "CC/C=C\\C[C@H](O)/C=C/C=C\\C=C\\C=C\\[C@@H](O)[C@@H](O)C/C=C\\CCC(=O)O", "note": "[RvD1]", "values": [{"measurement": "liver macrophage infiltration (change)", "setting": "[2]", "value": "−15", "unit": "%"}]}
{"molecule": "Ac2-26 peptide: annexin A1 N-terminal mimetic peptide that acts on the formyl peptide receptor ALX/FPR2 (Ac-AMVSEFLKQAWFIENEEQEYVQTVK; UniProt P04083 2-26, looked up, fragment)", "values": [{"measurement": "blockade of zymosan-stimulated PMN infiltration", "setting": "[3]", "value": "approximately 30%"}]}
